# In US11802120B2, “Fused cyclic urea derivatives as CRHR2 antagonist” (RaQualia Pharma Inc., priority 2018, dated 2023):
# Target: T1, human CRHR2-alpha (Homo sapiens, UniProt Q13324)
# T1 sequence (Q13324 1-411): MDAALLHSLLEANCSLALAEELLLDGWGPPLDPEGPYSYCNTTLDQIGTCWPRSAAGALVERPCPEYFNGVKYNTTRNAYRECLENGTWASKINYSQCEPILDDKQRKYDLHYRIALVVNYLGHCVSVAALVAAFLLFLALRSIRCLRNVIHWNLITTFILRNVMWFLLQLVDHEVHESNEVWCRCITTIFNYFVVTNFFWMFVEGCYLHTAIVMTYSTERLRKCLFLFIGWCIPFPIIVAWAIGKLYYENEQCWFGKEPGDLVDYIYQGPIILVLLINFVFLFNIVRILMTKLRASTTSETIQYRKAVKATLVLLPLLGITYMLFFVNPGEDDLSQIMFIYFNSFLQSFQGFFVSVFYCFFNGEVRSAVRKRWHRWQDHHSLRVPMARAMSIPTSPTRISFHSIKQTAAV
# Assay: cAMP functional assay for human CRHR2 (LANCE Ultra cAMP, TR-FRET)
# Type: cell-based
# Conditions: CHO-K1 cells expressing human CRHR2-alpha, agonist human urocortin2 at EC80, cAMP; read-out: IC50 against CRHR2
# Method in brief: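 CHO-K1 cells stably expressing each receptor, serum-starved and cryopreserved, were preincubated with compound 30 min at 25° C in HBSS buffer with 0.5 mM IBMX, pH 7.4, then stimulated 30 min with EC80 agonist (urocortin2 for CRHR2, CRF for CRHR1). cAMP read by TR-FRET; IC50 from percent-inhibition curves.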
smiles,measurement,value
"Cc1ncc(Cl)cc1C(=O)N[C@H]1CC[C@H](Cn2c(=O)n(-c3cncc(N(C)C)c3)c3ccccc32)CC1 [Example 483, 5-chloro-N-((1r,4r)-4-((3-(5-(dimethylamino)pyridin-3-yl)-2-oxo-2,3-dihydro-1H-benzo [d]imidazol-1-yl)methyl)cyclo-hexyl)-2-methylnicotinamide]",IC50,< 300 nM
"COc1cncc(-n2c(=O)n(C[C@H]3CC[C@H](NC(=O)c4cc(Cl)cnc4C)CC3)c3ccccc32)c1 [Example 484, 5-chloro-N-((1r,4r)-4-((3-(5-methoxypyridin-3-yl)-2-oxo-2,3-dihydro-1H-benzo[d]imidazol-1-yl)methyl)cyclo-hexyl)-2-methylnicotinamide]",IC50,< 300 nM
"Cc1ncc(Cl)cc1C(=O)N[C@H]1CC[C@H](Cn2c(=O)n(-c3cncc(-c4cnco4)c3)c3ccccc32)CC1 [Example 485, 5-chloro-2-methyl-N-((1r,4r)-4-((3-(5-(oxazol-5-yl)pyridin-3-yl)-2-oxo-2,3-dihydro-1H-benzo[d]imidazol-1-yl)methyl)cyclohexyl)nicotinamide]",IC50,< 300 nM
"COCCOc1cncc(-n2c(=O)n(C[C@H]3CC[C@H](NC(=O)c4cc(Cl)cnc4C)CC3)c3ccccc32)c1 [Example 486, 5-chloro-N-((1r,4r)-4-((3-(5-(2-methoxyethoxy)pyridin-3-yl)-2-oxo-2,3-dihydro-1H-benzo[d]imidazol-1-yl)methyl)cyclo-hexyl)-2-methylnicotinamide]",IC50,< 300 nM
"CNc1cncc(-n2c(=O)n(C[C@H]3CC[C@H](NC(=O)c4cc(Cl)cnc4C)CC3)c3ccccc32)c1 [Example 487, 5-chloro-2-methyl-N-((1r,4r)-4-((3-(5-(methylamino)pyridin-3-yl)-2-oxo-2,3-dihydro-1H-benzo[d]imidazol-1-yl)methyl)cyclohexyl)nicotinamide]",IC50,< 300 nM
"Cc1ncc(Cl)cc1C(=O)N[C@H]1CC[C@H](Cn2c(=O)n(-c3cccc(-c4cnco4)c3)c3ccccc32)CC1 [Example 488, 5-chloro-2-methyl-N-((1r,4r)-4-((3-(3-(oxazol-5-yl)phenyl)-2-oxo-2,3-dihydro-1H-benzo[d]imidazol-1-yl)methyl)cyclo-hexyl)nicotinamide]",IC50,< 300 nM
"Cc1ncc(Cl)cc1C(=O)N[C@H]1CC[C@H](Cn2c(=O)n(-c3ccc(-c4cnco4)cn3)c3ccccc32)CC1 [Example 489, 5-chloro-2-methyl-N-((1r,4r)-4-((3-(5-(oxazol-5-yl)pyridin-2-yl)-2-oxo-2,3-dihydro-1H-benzo[d]imidazol-1-yl)methyl)cyclohexyl)nicotinamide]",IC50,< 300 nM
"CNC(=O)c1ccc(-n2c(=O)n(C[C@H]3CC[C@H](NC(=O)c4cc(C(F)(F)F)ccc4Cl)CC3)c3ccccc32)cn1 [Example 490, 5-(3-(((1r,4r)-4-(2-chloro-5-(trifluoromethyl)benza-mido)cyclohexyl)methyl)-2-oxo-2,3-dihydro-1H-benzo[d]imidazol-1-yl)-N-methylpicolinamide]",IC50,< 300 nM
"CNC(=O)c1ccc(-n2c(=O)n(C[C@H]3CC[C@H](NC(=O)c4cc(C(F)(F)F)cnc4C)CC3)c3ccccc32)cn1 [Example 491, N-methyl-5-(3-(((1r,4r)-4-(2-methyl-5-(trifluoromethyl)nicotinamido)cyclohexyl)methyl)-2-oxo-2,3-dihydro-1H-benzo[d]imidazol-1-yl) picolinamide]",IC50,< 300 nM
"CNC(=O)c1ccc(-n2c(=O)n(C[C@H]3CC[C@H](NC(=O)c4cc(C)ccc4C(F)(F)F)CC3)c3ccccc32)cn1 [Example 492, N-methyl-5-(3-(((1r,4r)-4-(5-methyl-2-(trifluoro-methyl)benzamido)cyclo-hexyl)methyl)-2-oxo-2,3-dihydro-1H-benzo[d]imidazol-1-yl)picolinamide]",IC50,< 300 nM
"O=C(N[C@H]1CC[C@H](Cn2c(=O)n(-c3ccc4nccnc4c3)c3ccccc32)CC1)c1cc(Cl)cnc1C(F)F [Example 495, 5-chloro-2-(difluoromethyl)-N-((1r,4r)-4-((2-oxo-3-(quinoxalin-6-yl)-2,3-dihydro-1H-benzo[d]imidazol-1-yl)methyl)cyclo-hexyl)nicotinamide]",IC50,< 300 nM
"O=C(N[C@H]1CC[C@H](Cn2c(=O)n(-c3ccncc3Cl)c3ncccc32)CC1)c1cc(Cl)cnc1C(F)F [Example 496, 5-chloro-N-((1r,4r)-4-((3-(3-chloropyridin-4-yl)-2-oxo-2,3-dihydro-1H-imidazo[4,5-b]pyridin-1-yl)methyl)cyclohexyl)-2-(difluoromethyl)nicotinamide]",IC50,< 300 nM
"Cc1ncc(Cl)cc1C(=O)N[C@H]1CC[C@H](Cn2c(=O)n(-c3ccc4c(c3)cc(CO)n4C)c3ccccc32)CC1 [Example 497, 5-chloro-N-((1r,4r)-4-((3-(2-(hydroxymethyl)-1-methyl-1H-indol-5-yl)-2-oxo-2,3-dihydro-1H-benzo[d]imidazol-1-yl)methyl)cyclohexyl)-2-methylnicotinamide]",IC50,< 300 nM
"O=C(N[C@H]1CC[C@H](Cn2c(=O)n(-c3ccc(N4CCCC4=O)nc3)c3ccccc32)CC1)c1cc(Cl)cnc1C(F)F [Example 498, 5-chloro-2-(difluoromethyl)-N-((1r,4r)-4-((2-oxo-3-(6-(2-oxopyrrolidin-1-yl)pyridin-3-yl)-2,3-dihydro-1H-benzo[d]imidazol-1-yl)methyl)cyclohexyl)nicotinamide]",IC50,< 300 nM
"N#Cc1ccccc1-n1c(=O)n(C[C@H]2CC[C@H](NC(=O)c3cc(Cl)cnc3C(F)F)CC2)c2ccccc21 [Example 499, 5-chloro-N-((1r,4r)-4-((3-(2-cyanophenyl)-2-oxo-2,3-dihydro-1H-benzo[d]imidazol-1-yl)methyl)cyclo-hexyl)-2-(difluoromethyl) nicotinamide]",IC50,< 300 nM
"CNC(=O)COc1ccc(-n2c(=O)n(C[C@H]3CC[C@H](NC(=O)c4cc(Cl)cnc4C(F)F)CC3)c3ccccc32)cn1 [Example 500, 5-chloro-2-(difluoromethyl)-N-((1r,4r)-4-((3-(6-(2-(methylamino)-2-oxoethoxy)pyridin-3-yl)-2-oxo-2,3-dihydro-1H-benzo[d]imidazol-1-yl)methyl)cyclohexyl)nicotinamide]",IC50,< 300 nM
"O=C(N[C@H]1CC[C@H](Cn2c(=O)n(-c3ccc(N4CCC4=O)nc3)c3ccccc32)CC1)c1cc(Cl)cnc1C(F)F [Example 501, 5-chloro-2-(difluoromethyl)-N-((1r,4r)-4-((2-oxo-3-(6-(2-oxoazetidin-1-yl)pyridin-3-yl)-2,3-dihydro-1H-benzo [d]imidazol-1-yl)methyl)cyclo-hexyl)nicotinamide]",IC50,< 300 nM
"O=C(N[C@H]1CC[C@H](Cn2c(=O)n(-c3ccc(NC(=O)C4CC4)nc3)c3ccccc32)CC1)c1cc(Cl)cnc1C(F)F [Example 502, 5-chloro-N-((1r,4r)-4-((3-(6-(cyclopropanecarboxa-mido)pyridin-3-yl)-2-oxo-2,3-dihydro-1H-benzo[d]imidazol-1-yl)methyl)cyclohexyl)-2-(difluoro-methyl)nicotinamide]",IC50,< 300 nM
"C[C@@H](Oc1ccc(-n2c(=O)n(C[C@H]3CC[C@H](NC(=O)c4cc(Cl)cnc4C(F)F)CC3)c3ccccc32)cn1)C(N)=O [Example 504, N-((1R,4r)-4-((3-(6-(((R)-1-amino-1-oxopropan-2-yl)oxy)pyridin-3-yl)-2-oxo-2,3-dihydro-1H-benzo[d]imidazol-1-yl)methyl)cyclohexyl)-5-chloro-2-(difluoromethyl) nicotinamide]",IC50,< 300 nM
"O=C(N[C@H]1CC[C@H](Cn2c(=O)n(-c3ccc(N4CCOCC4=O)nc3)c3ccccc32)CC1)c1cc(Cl)cnc1C(F)F [Example 505, 5-chloro-2-(difluoromethyl)-N-((1r,4r)-4-((2-oxo-3-(6-(3-oxomorpholino)pyridin-3-yl)-2,3-dihydro-1H-benzo[d]imidazol-1-yl)methyl)cyclo-hexyl)nicotinamide]",IC50,< 300 nM
"Cc1ccc(-n2c(=O)n(C[C@H]3CC[C@H](NC(=O)c4cc(Cl)cnc4C(F)F)CC3)c3nccnc32)cc1 [Example 506, 5-chloro-2-(difluoromethyl)-N-((1r,4r)-4-((2-oxo-3-(p-tolyl)-2,3-dihydro-1H-imidazo[4,5-b]pyrazin-1-yl)methyl)cyclohexyl)nicotinamide]",IC50,< 300 nM
"COc1ccc(C#N)c(-n2c(=O)n(C[C@H]3CC[C@H](NC(=O)c4cc(Cl)cnc4C(F)F)CC3)c3cccnc32)c1 [Example 507, 5-chloro-N-((1r,4r)-4-((3-(2-cyano-5-methoxyphenyl)-2-oxo-2,3-dihydro-1H-imidazo [4,5-b]pyridin-1-yl)methyl)cyclohexyl)-2-(difluoromethyl) nicotinamide]",IC50,< 300 nM
"CC(=O)Nc1ccc(-n2c(=O)n(C[C@H]3CC[C@H](NC(=O)c4cc(Cl)cnc4C(F)F)CC3)c3ccccc32)cn1 [Example 508, N-((1r,4r)-4-((3-(6-aceta-midopyridin-3-yl)-2-oxo-2,3-dihydro-1H-benzo[d]imidazol-1-yl)methyl)cyclo-hexyl)-5-chloro-2-(difluoro-methyl)nicotinamide]",IC50,< 300 nM
"O=C(N[C@H]1CC[C@H](Cn2c(=O)n(-c3ccc(N4CCCCC4=O)nc3)c3ccccc32)CC1)c1cc(Cl)cnc1C(F)F [Example 509, 5-chloro-2-(difluoromethyl)-N-((1r,4r)-4-((2-oxo-3-(6-(2-oxopiperidin-1-yl)pyridin-3-yl)-2,3-dihydro-1H-benzo[d]imidazol-1-yl)methyl)cyclohexyl)nicotinamide]",IC50,< 300 nM
